The subject of series [1] is cartilage (IVD, knee / synovial joints). In words: Whole body autoradiography (WBA) of radiolabeled cartilage homing peptides (Example 21). Type of series: in vivo, Female Harlan athymic nude mice. The procedure:
This example illustrates peptide homing to cartilage mice 5 minutes to 48 hours after administration of a radiolabeled peptide. Signal from the radiolabeled peptides was found in all types of cartilage at each time point examined. Each peptide was radiolabeled by methylating […] as described in EXAMPLE 2. As such, the peptide may contain methyl or dimethyl lysines and a methylated or dimethylated amino terminus. A dose of 100 nmol radiolabeled peptide was administered via tail vein injection in Female Harlan athymic nude mice, weighing 20-25 g. The experiment was done in duplicate (n=2 animals per group). In some animals, kidneys were ligated to prevent renal filtration of the radiolabeled peptides and extend plasma half-life. Each radiolabeled peptide was allowed to freely circulate within the animal for the described time period before the animals were euthanized and sectioned.
Whole body autoradiography (WBA) sagittal sectioning was performed as follows. […] Sections were allowed to desiccate in a freezer prior to imaging.
For the autoradiography imaging, tape mounted thin sections were freeze dried and radioactive samples were exposed to phophoimager plates for 7 days.

For the next series, the target named is pepsin (Homo sapiens, UniProt P0DJD8). In words: Peptide resistance to pepsin digestion / simulated gastric fluid (RP-HPLC). Format: in vitro ADME. As to conditions: 12.5 ug peptide, 20 ug pepsin, SGF pH 1.05, 30 minutes at 37.5 C. On the procedure: SEQ ID NO: 24 peptide and SEQ ID NO: 111 peptide were suspended in 500 μl of ddH2O at a stock concentration of 2 mg/ml. Reactions were prepared with 12.5 μg peptide and 20 μg pepsin in simulated gastric fluid (pH 1.05) and incubated for 30 minutes at 37.5° C. Reactions were quenched with a final concentration of 100 mM Tris base and 10 mM dithiothreitol (DTT). Reversed phase HPLC (RP-HPLC) was run on samples using an Agilent 1260 HPLC equipped with a C-18 Poroshell 120B column. Sample were analyzed by a gradient method with a mobile phase of Solvent A (water with 0.1% TFA) and Solvent B (acetonitrile with 0.1% TFA). Solvent B was ramped up from 5%-45% of the mobile phase over a period of 10 minutes. Peptides were detected at an absorbance of 214 nm and 280 nm.
Sequence of pepsin (P0DJD8 63-388): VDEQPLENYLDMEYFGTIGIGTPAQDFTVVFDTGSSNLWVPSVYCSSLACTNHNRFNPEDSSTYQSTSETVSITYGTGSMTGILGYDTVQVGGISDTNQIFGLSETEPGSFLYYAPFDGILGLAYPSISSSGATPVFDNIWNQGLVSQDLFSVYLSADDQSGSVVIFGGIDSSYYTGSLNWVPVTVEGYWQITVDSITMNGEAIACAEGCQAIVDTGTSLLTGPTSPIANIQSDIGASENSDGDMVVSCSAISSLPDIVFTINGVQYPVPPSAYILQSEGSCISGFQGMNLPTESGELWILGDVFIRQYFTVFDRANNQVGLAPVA

The nature of series [2]: Peptide resistance to reducing agents (10 mM DTT, RP-HPLC). Format: physicochemical. As to conditions: 10 mM DTT in PBS, room temperature, 30 minutes. On the procedure:
Several peptides were suspended in 500 μl of ddH2O to a stock concentration of 2 mg/ml. Reactions were prepared by adding 12.5 μg peptide from the stock solution to a 10 mM solution of DTT in PBS and allowed to incubate at room temperature for 30 minutes. RP-HPLC was run on samples using an Agilent 1260 HPLC equipped with a C-18 Poroshell 120B column. Samples were analyzed by a gradient method with a mobile phase of Solvent A (water with 0.1% TFA) and Solvent B (acetonitrile with 0.1% TFA). Solvent B was ramped up from 5%-45% of the mobile phase over a period of 10 minutes.
Peptides were fractionated by HPLC and without any further sample prep, 5 μl of the sample was injected into the mass spectrometer at 1 mg/ml using a CTCPAL® autosampler. Alternatively, if peptides were provided as a lyophilized powder, the sample was dissolved in 100% water to a concentration of 1 mg/ml a Millipore Ziptip C18® column was used to desalt the peptides prior to injection for ES-MS. The mass spectrometer was calibrated using 5 pmol of mixture of five standard peptides to achieve a high accuracy of mass determination with less than a 10 ppm error. Confirmation of peptide disulfide bond formation was achieved by analyzing the m/z isotopic distribution and the exact charge. All peptides tested are shown under reducing and non-reducing conditions.

The nature of series [3]: Intravenous and oral administration of radiolabeled peptide: plasma, urine, feces. Format: in vivo, female Harlan athymic nude mice. On the procedure:
This example describes intravenous and oral administration of peptides of this disclosure, including transit of the intact peptide through the GI tract and to the feces after oral administration. A radiolabeled peptide of SEQ ID NO: 24 was administered intravenously or orally to female Harlan athymic nude mice, 6-8 weeks of age. Radiolabeled peptides of SEQ ID NO: 24 was administered intravenously (IV) at a dose of 4.8 μCi/20 nmol. Radiolabeled peptide of SEQ ID NO: 24 was administered orally (PO) at a dose of 24 μCi/100 nmol. Mice were euthanized at various time points by CO2 asphyxiation and biological fluids were collected, including blood, urine, and feces. Urine was collected be abdominal palpitation immediately before CO2 asphyxiation. Blood was collected by cardiac puncture immediately after CO2 asphyxiation and centrifuged to separate plasma. Feces was collected either before or after CO2 asphyxiation by palpitation of the colon. Samples were analyzed by HPLC to quantify the concentration or dose of intact peptide recovered in plasma, urine, and feces. For HPLC analysis, urine samples were first diluted at a 1:20 ratio in water and plasma samples were diluted at a 1:5 ratio in water. Feces samples were dissolved in Tris buffer, centrifuged to remove the insoluble fraction, and supernatants were diluted at a 1:1 ratio in water.
The delivered dose of ^14C was 4.8 for intravenous administration and 24 μCi for oral administration. Time points examined included 0.08, 0.5, 1, 3, 8, 24, 48 hours and three mice were examined per time point. […] The delivered dose of ^14C was 4.8 for intravenous administration and 24 μCi for oral administration. Time points examined included 0.08, 0.5, 1, 3, 8, 24, 48 hours and three mice were examined per time point. […] The delivered dose of ^14C was 24 μCi for oral administration. Time points examined included 0.5, 1, and 3 hours. […] The intact peptide was eluted near 6 minutes, whereas cleaved fragments—such as the N-terminal Gly residue—were eluted near 1 minute.
The delivered dose of ^14C was 4.8 μCi for intravenous administration and 24 μCi for oral administration. Time points examined included 0.08, 0.5, 1, 3, 8, 24, 48 hours and three mice were examined per time point. […] The delivered dose of ^14C was 24 μCi for oral administration. Time points examined included 0.5, 1, 3, 8, 24, and 48 hours.
The delivered dose of ^14C was 4.8 μCi for intravenous administration and 24 μCi for oral administration. Time points examined included 0.08, 0.5, 1, 3, 8, 24, 48 hours and three mice were examined per time point. […] The delivered dose of ^14C was 24 μCi for oral administration. Time points examined included 3 and 8 hours.

A further series relates to cartilage. As to conditions: 3 hours, ligated kidneys.
A further series concerns pepsin, trypsin. Kind of series: HPLC after exposure to oxidative, reductive, acidic conditions and proteinases (FIG. 72). To be noted: pH 1 / SGF pH 1.05, 10 mM DTT, 500 U pepsin, 50 U trypsin. Format: in vitro ADME. The procedure:
FIG. 72 illustrates HPLC chromatograms of peptides of SEQ ID NO: 111 and SEQ ID NO: 434 after exposure to a range of conditions including oxidative, reductive, and acidic conditions as well as after exposure to proteinases. FIG. 72A illustrates the HPLC trace of a peptide of SEQ ID NO: 111 under reducing and acidic conditions. FIG. 72B illustrates the HPLC trace of a peptide of SEQ ID NO: 111 under various combinations of reducing agents and proteases including 10 mM DTT in 500 U pepsin, 500 U pepsin, 10 mM DTT in 50 U trypsin, and 50 U trypsin. FIG. 72C illustrates the HPLC trace of a peptide of SEQ ID NO: 434 under various protease conditions including in 500 U pepsin, in 50 U trypsin, non-reducing (NR, oxidized conditions) in simulated gastric fluid (SGF) at pH 1.05, and NR.
FIG. 72 illustrates HPLC chromatograms of peptides of SEQ ID NO: 111 and SEQ ID NO: 434 after exposure to a range of conditions including oxidative, reductive, and acidic conditions as well as after exposure to proteinases. The peptide of SEQ ID NO: 434 is a linearized version of the knottin peptide of SEQ ID NO: 111. The peptide of SEQ ID NO: 434 has the same amino acid sequence as the knottin peptide of SEQ ID NO: 111, but with all cysteines mutated to serines. FIG. 72A illustrates the HPLC trace of a peptide of SEQ ID NO: 111 under reducing and acidic conditions. […]

Where [4] appears, read: 3 hours after 100 nmol radiolabeled peptide.
[5] abbreviates: 24 hours after 100 nmol radiolabeled peptide.
The mark [6] stands for this setting: 0.08 hours after 100 nmol radiolabeled peptide.
[7] abbreviates: 0.5 hours after 100 nmol radiolabeled peptide.
Where [8] appears, read: 1 hour after 100 nmol radiolabeled peptide.
Setting [9] is: 8 hours after 100 nmol radiolabeled peptide.
Where [10] appears, read: 48 hours after 100 nmol radiolabeled peptide.

For “GSGVPINVKCRGSRDCLDPCKKAGMRFGKCINSKCHCTP [SEQ ID NO: 24]”, the results for the “Signal in IVD as a percentage of the blood” value in series [1] (setting [4]) and in series [1] (setting [5]) were 1779% and 833%, respectively. Further, the “Resistance to degradation in DTT, SGF, SGF and pepsin, SPTD solutions” value in the series with pepsin is listed as “highly resistant to degradation”. For the same sequence, in series [2], the “HPLC peaks under non-reducing versus reducing conditions (resistance to reduction by DTT)” value is “Peaks showing the peptide under non-reducing conditions and reducing conditions are overlapping”. The “Detection of radioactive signal from the dosed peptide in plasma” value in series [3] (IV 20 nmol / PO 100 nmol) is “at least 50 hours”. Further, the “Plasma concentration as percent of the dose” value is on record as “up to 10 % of the dose” in series [3] (IV administration, 20 nmol) and “up to 1 % of the dose” in series [3] (PO administration, 100 nmol). Besides, the “Intact peptide in feces” value in series [3] (oral dosing 100 nmol, 3 and 8 hours) is “detected in feces after oral dosing”. For the same sequence, the “Nature of radioactivity detected in plasma (HPLC / scintillation)” value in series [3] (oral gavage 100 nmol, 0.5, 1, 3 hours) is reported as “nearly some of all of the radioactivity detected in plasma was due to fragments of the administered peptide”. Further, in the series on cartilage, the “Cartilage types reached (FIGS. 3-4)” value is “homing of SEQ ID NO: 24 to hyaline cartilage such as articular cartilage and physeal cartilage, as well as fibrocartilage”.

Consider “GSGVPINVRCRGSRDCLDPCRRAGMRFGRCINSRCHCTP [SEQ ID NO: 111]”, for which the “Time at which the signal to background ratio in IVD peaked” value in series [1] (100 nmol) was 24 h. The “Time at which the signal to background ratio in knee joints peaked” value in series [1] (100 nmol) stood at 8 h. Besides, the “Presence of radiolabeled peptide in IVD and synovial joints” value in series [1] (100 nmol, 5 minutes-48 hours) is “observed in the intervertebral disc (IVD) and synovial joints at all time points (5 minutes-48 hours)”. For the same sequence, the “Signal in IVD as a percentage of the blood” value stood at 164% in series [1] (setting [6]); 369% in series [1] (setting [7]); 961% in series [1] (setting [8]); 3213% in series [1] (setting [4]); 3777% in series [1] (setting [9]); 5391% in series [1] (setting [5]). Moreover, the “Signal in IVD as a percentage of the blood” value in series [1] (setting [10]) was 3320%. Besides, the “Signal in knee joints as a percentage of the blood” value was determined as 404% in series [1] (setting [6]); 510% in series [1] (setting [7]); 1114% in series [1] (setting [8]); 4059% in series [1] (setting [4]); 4990% in series [1] (setting [9]); 2137% in series [1] (setting [5]). For the same sequence, the “Signal in knee joints as a percentage of the blood” value in series [1] (setting [10]) is given as 843%. Further, in series [1] (IVD, 3 hours), the “Signal of folded knotted peptide compared to linearized peptide of SEQ ID NO: 434” value was around 20 fold. Besides, the “Resistance to degradation in DTT, SGF, SGF and pepsin, SPTD solutions” value at pepsin is listed as “similarly highly resistant in the various conditions tested”. The “HPLC peaks under non-reducing versus reducing conditions (resistance to reduction by DTT)” value in series [2] was “Peaks showing the peptide under non-reducing conditions and reducing conditions are fully overlapping”. Further, in the series with pepsin, trypsin, the “Resistance to degradation (FIG. 72)” value is “highly resistant to degradation at pH 1, reducing agents, trypsin, and pepsin”.

As to “GSGVPINVRSRGSRDSLDPSRRAGMRGRSINSRSHSTP [SEQ ID NO: 434, reference compound]”, in series [1] (100 nmol radiolabeled peptide), the “Cartilage homing (qualitative, WBA)” value was “homed to cartilage to a much lesser extent than the folded knotted peptide”. Further, the “Signal in IVD as a percentage of signal in blood” value in series [1] (3 hr Intact Kidneys, 100 nmol) was 177%; in series [1] (3 hr Ligated Kidneys, 100 nmol), 117%; in series [1] (24 hr Intact Kidneys, 100 nmol), 104%. In addition, in the series with pepsin, trypsin, the “Resistance to degradation (FIG. 72)” value is “more susceptible to degradation at these different conditions”.

The record behind these values is patent US11648290B2, “Cartilage-homing peptides” (FRED HUTCHINSON CANCER CENTER, priority 2015, dated 2023).
